Assay results as given in patent publication US20210393606A1, “THERAPEUTIC AGENT FOR FRONTAL LOBE DYSFUNCTION” (KYOWA HAKKO KIRIN CO., LTD., priority 2015, published 2021).

Key:
[1] = tested on: NAC61-95-treated Slc:ICR mice (α-synucleinopathy model); assay: Gait analysis (CatWalk XT) in NAC61-95-treated α-synucleinopathy model mice; format: in vivo, mouse; conditions: NAC61-95 mice
Procedure: (§1) By reference to articles (Science, 338, p. 949 (2012); Behavioral Brain Reexplore, 208, p. 274 (2010)), an animal model capable of confirming a treatment and/or prophylactic effect on α-synucleinopathy, for example, Lewy body disease (for example, cognitive impairment in Parkinson's disease, diffuse Lewy body disease, dementia with lewy bodies, movement disorder associated with Lewy body disease and the like) was generated as follows.
The cognitive function was evaluated using a spontaneous alternation task. The spontaneous alternation task is known as an evaluation system of cognitive function utilizing properties of animal to willingly explore a novel environment (Neuroscience and Biobehavioral Reviews 28, p. 497 (2004)). That is, if the animal remembers the arm previously entered in exploration in a Y-maze apparatus, the behavior of spontaneous entry into a different arm is expressed by an alternation behavior rate, and used as an index of cognitive function. The motor function was evaluated by analyzing gait function in natural walk conditions using a gait analysis system.
NAC61-95 (custom, Sigma) was dissolved in PBS to prepare 4 μg/μL NAC61-95 solution.
Under pentobarbital (Somnopentyl, Kyoritsuseiyaku, 50 mg/kg, i.p.) anesthesia, 5 μL of NAC61-95 solution was injected using a Hamilton syringe (10 μL) equipped with a double needle (27G, needle length 3 mm) into the right lateral cerebral ventricle of Slc:ICR mice (male, Japan SLC) over about 1 min, and stood for 1 min to induce cognitive impairment and/or movement disorder. The sham treatment group was injected with 5 μL of PBS.
A gait analysis system (CatWalk XT, ver. 9.1, Noldus) was used. The system was constituted of a walkway with pressure dependent luminescence glass and a light source, luminescence ceiling, highly sensitive highspeed camera and analysis software, and the gait was analyzed by digitizing the brightness of the light emitted by the pressure dependent luminescence glass in response to the pressure. The gait data was automatically recorded and analyzed by the analysis software only when the mice moved straight forward without stopping in the predetermined area on the walkway.
The mice were brought into the experiment room without light and habituated for not less than 1 hr. The mice were placed in the apparatus, and allowed to walk freely until 6 running data were obtained for each mouse. The earliest three analyzable running data were used, and mean was calculated. By reference to an article relating to movement disorder in Parkinson's disease animal model (Journal of Biomedical Science 17, p. 9 (2010)), a decrease in the maximum contact area (Total surface area of certain paw at the moment of maximum paw contact) and print area (total surface area of the paw print), as well as change in the gait pattern (sequence of contact of 4 paws) were used as indices of movement disorder.
At 60 min before the test, compound (I) (suspended in 0.5 w/v % aqueous MC solution, and prepared to 0.5 mL per 100 g body weight of mouse on the administration day) was orally administered at a dose of 0.1 mg/kg, or a vehicle (0.5 w/v % aqueous MC solution) free of the test compound was orally administered at 0.5 mL per 100 g body weight of mice on the administration day.

[2] = tested on: medial prefrontal dopaminergic terminal-lesioned rat; assay: Object recognition test using medial prefrontal dopaminergic terminal-lesioned rat; format: in vivo; conditions: lesioned rats
Excerpt: The object recognition test is known as an evaluation system of cognitive function utilizing properties of animal to willingly explore a new object (Behavioural Brain Research 31, p. 47 (1988)). An animal is placed in an apparatus containing two identical objects and allowed to freely explore (acquisition trial), after which one of the objects in the apparatus is changed to one having a different shape (novel object) and the animal is allowed to freely explore (test trial). […] In this test, such property is evaluated as an index of cognitive function.
CD(SD)IGS rat (male, Charles River) received Pentobarbital sodium salt (Tokyo Chemical Industry Co., Ltd., 30 mg/kg) intraperitoneally and fixed on a brain stereotaxis apparatus (SR-6, Narishige kagaku kikai kenkyusho) under anesthesia. Using a microinjection pump (CMA/100, Carnegie Medicine), dopaminergic neurotoxin, 6-hydroxidopamine hydrochloride (6-OHDA, Sigma-Aldrich) was injected over about 1 min at (1) 3.2 mm anterior, 0.8 mm left lateral and 3.0 mm ventral, (2) 3.2 mm anterior, 0.8 mm right lateral and 3.0 mm ventral, (3) 3.2 mm anterior, 0.8 mm left lateral and 5.0 mm ventral, (4) 3.2 mm anterior, 0.8 mm right lateral and 5.0 mm ventral, (5) 4.2 mm anterior, 0.8 mm left lateral and 4.0 mm ventral, and (6) 4.2 mm anterior, 0.8 mm right lateral and 4.0 mm ventral, each from the bregma suture of the rats to lesion dopaminergic terminals in the medial prefrontal cortex. 6-OHDA was prepared at a concentration of 4 μg/μL, injected at a flow rate of 1 μL/min over 1 min, and stood for 1 min. In the sham operated group, a stainless cannula was inserted into the same coordinates. […] The dosing volumes of pentobarbital sodium and desipramine hydrochloride were calculated at 1 and 5 mL/kg based on the body weight measured on the administration day. […]
To familiarize the rats with the experimenter, they were handled for 3 days before the test. […] The time spent in exploration (sniffing) each object of the rats in the test trial was measured, and the ratio (%) relative to the total exploration time was calculated. […]

[3] = tested on: NAC61-95-treated Slc:ICR mice (α-synucleinopathy model); assay: Spontaneous alternation task (Y-maze) in NAC61-95-treated α-synucleinopathy model mice; format: in vivo, mouse; conditions: NAC61-95 mice
Procedure: as §1
The cognitive function was evaluated using a spontaneous alternation task. The spontaneous alternation task is known as an evaluation system of cognitive function utilizing properties of animal to willingly explore a novel environment (Neuroscience and Biobehavioral Reviews 28, p. 497 (2004)). […] The motor function was evaluated by analyzing gait function in natural walk conditions using a gait analysis system. […]
Mice were brought into the experiment room on the previous day of test for habituation. […] Entry of all four limbs of a mouse into one arm was defined as entry into arm, and the order of entry of the mice into the arm was recorded. A behavior of continuous entry into all three different arms was defined as spontaneous alternation behavior, and the percentage of alternation behavior was calculated by the following calculation formula. […]

[4] = tested on: SLC: ICR male mice injected with α-synuclein or NAC61-95; assay: α-Synucleinopathy model (α-synuclein or NAC61-95 injected mice), behavioral pharmacological evaluation, Experimental Example 2; format: in vivo, mouse; conditions: appropriate dose, a few hours after administration; written in present tense, no data
Excerpt: By reference to articles (Science, 338, p. 949 (2012); Behavioral Brain Reexplore, 208, p. 274 (2010)), an animal model capable of confirming a treatment and/or prophylactic effect on α-synucleinopathy, for example, Lewy body disease (for example, cognitive impairment in Parkinson's disease, diffuse Lewy body disease, dementia with lewy bodies, movement disorder associated with Lewy body disease and the like) is generated.
An appropriate dose of a solution of α-synuclein (rPeptide, S-100) or NAC61-95 (custom, Sigma) dissolved in phosphate buffered saline (PBS) is injected to the striatum or lateral cerebral ventricle of SLC: ICR male mice to induce cognitive impairment and/or movement disorder. After confirmation of the pathology induction, an appropriate dose of compound (I) is administered to the mice.

[5] = 0.1 mg/kg orally 60 min before test, mean±standard error
[6] = 0.3 mg/kg orally 60 min before test, 3 min test trial, mean±standard error

**Q.** Cc1ccc(C(=O)Nc2nc(-c3ccco3)c(C(=O)C3CCOCC3)s2)cn1 [compound (I)] was tested. Which “gait pattern AA” value ([1]; AA: right forepaw → right hindpaw → left forepaw → left hindpaw, 0.1 mg/kg orally, mean±standard error) did it give?
**A.** 0.00 ± 0.00

**Q.** What about the “gait pattern AB” value ([1]; AB: right forepaw → left hindpaw → left forepaw → right hindpaw, 0.1 mg/kg orally, mean±standard error) of the same molecule?
**A.** 81.86 ± 4.25

**Q.** And the “gait pattern CA” value ([1]; CA: right forepaw → left forepaw → right hindpaw → left hindpaw, 0.1 mg/kg orally, mean±standard error)?
**A.** 13.39 ± 4.00

**Q.** And the “gait pattern CB” value ([1]; CB: right forepaw → left hindpaw → right hindpaw → left forepaw, 0.1 mg/kg orally, mean±standard error)?
**A.** 4.75 ± 1.79

**Q.** And the “change of gait pattern compared to the vehicle administration group” value ([1]; 0.1 mg/kg orally)?
**A.** an increase in pattern AB and a decrease in pattern CB

**Q.** What about the “maximum contact area, left forepaw” value [1, 5] of the same molecule?
**A.** 0.30 ± 0.02

**Q.** And the “maximum contact area, left hindpaw” value [1, 5]?
**A.** 0.31 ± 0.02

**Q.** And the “maximum contact area, right forepaw” value [1, 5]?
**A.** 0.29 ± 0.02

**Q.** What about the “maximum contact area, right hindpaw” value [1, 5] of the same molecule?
**A.** 0.30 ± 0.02

**Q.** And the “print area, left forepaw” value [1, 5]?
**A.** 0.40 ± 0.02

**Q.** And the “print area, left hindpaw” value [1, 5]?
**A.** 0.38 ± 0.03

**Q.** What about the “print area, right forepaw” value [1, 5] of the same molecule?
**A.** 0.39 ± 0.02

**Q.** What about the “print area, right hindpaw” value [1, 5] of the same molecule?
**A.** 0.37 ± 0.03

**Q.** And the “maximum contact area and gait area of the left hindpaw compared to the vehicle administration group” value ([1]; 0.1 mg/kg orally, p<0.05)?
**A.** significantly large

**Q.** What about the “maximum contact area and gait area of the right forepaw compared to the vehicle administration group” value ([1]; 0.1 mg/kg orally, p<0.1) of the same molecule?
**A.** tendency of the maximum contact area and gait area of the right forepaw being large

**Q.** And the “ratio (%) of exploration time, familiar object” value [2, 6]?
**A.** 34.97 ± 2.88%

**Q.** And the “ratio (%) of exploration time, novel object” value [2, 6]?
**A.** 65.03 ± 2.88%

**Q.** What about the “exploration time of the novel object compared with the familiar object” value ([2]; 0.3 mg/kg orally, paired t-test p<0.001) of the same molecule?
**A.** significantly longer

**Q.** What about the “alternation behavior (%)” value ([3]; 0.1 mg/kg orally 60 min before test, Y-maze 7 min, mean±standard error) of the same molecule?
**A.** 69.5 ± 2.4%

**Q.** What about the “alternation behavior compared to the vehicle administration group” value ([3]; 0.1 mg/kg orally, Student's t-test p<0.01) of the same molecule?
**A.** significantly high

**Q.** And the “pathology (cognitive impairment and/or movement disorder) by Y-maze, spontaneous motor activity, CATWALK” value [4]?
**A.** Improvement of the pathology
